Laboratory results as given in patent US6486198B1, “Compounds and methods for the treatment of post traumatic stress disorder” (priority 1999, dated 2002).

How the values were obtained:
[1] = tested on: DSM-IV PTSD criterion B symptoms of nightmares and intrusions (intrusive recollections/flashbacks); assay: Naturalistic add-on/monotherapy topiramate trial in chronic PTSD patients; patient self-report of partial/full response of nightmares and intrusions (LOCF); format: in vivo, human
Source text: Thirty five (35) patients meeting DSM-IV criteria for chronic post-traumatic stress disorder (PTSD) were selected for a study of the effects of topiramate administration. […] The group with hallucinatory PTSD experienced auditory and/or visual hallucinations containing content specifically associated with identified traumatic events. Whether these were PTSD “flashbacks” or psychotic experiences were at times difficult to ascertain due to fluctuations in reality testing the hallucinations. For this reason, prior to being screened for PTSD, some patients had received psychiatric diagnoses of psychotic disorders despite meeting full diagnostic criteria for PTSD.
Topiramate was added naturalistically to existing pharmacotherapy (see Table 1 for concomitant medications at start of trial), starting at 25 mglday and increasing whenever possible by 25 to 50 mg/day every 3 to 4 days to clinical response. Target symptoms were DSM-IV PTSD criterion B symptoms of nightmares (N =24) and intrusions (intrusive recollections/flashbacks, N=35) involving re-experiencing of traumas. Definitions of improvement, as assessed from patient self-report, included “partial response” as “definite reduction in intensity and frequency of nightmares or intrusions”, and “full response” as “complete cessation of nightmares and intrusions for a sustained period”. Following the seminal observations, in order to systematically identify responsive symptoms, the next 17 patients completed a self-report scale, the PTSD Checklist—Civilian Version (PCL-C)15, at baseline and at 4 weeks after starting topiramate. The patients were instructed to complete the PCL-C for experiences corresponding to traumas consistent with DSM-IV criterion A for PTSD. Paired ttest scores for the PCL-C were calculated with Jandel SigmaStat® v. 2.0.
Response assessment, summarized in Table 4, used the Last Observation Carried Forward (LOCF) method, which includes all patients who entered the trial and their last reported condition while under active treatment. Overall, topiramate suppressed nightmares in 79% of patients ([…]; 5/28 partially), and intrusions in 86% (22/35 fully; 8/35 partially). Globally (i.e., in terms of suppression of both nightmares and intrusions), 22 patients (63%) reported a full response and 8 patients (23%) a partial response. Five patients discontinued without response, 1 at 5 days, and the remaining 4 after 4 weeks. The non-hallucinatory subgroup achieved a higher response rate (full: 79%; full/partial: 89%). All full responses occurred in the non-hallucinatory subgroup. Benefit usually occurred within 2 to 3 days of reaching an effective dose. A full response to topiramate was reported for 10 patients within 1 week of treatment, and for 3 additional patients by the third week of treatment.

[2] = tested on: simple and complex partial seizures and secondarily generalized seizures; conditions: cited from earlier work
kindled epilepsy = conditions: in vivo; cited from earlier work
[3] = All Patients (N = 35), both nightmares and intrusions
[4] = All Patients (N = 35), both nightmares and intrusions, listed as topiramate
[5] = All Patients (N = 35), either nightmares or intrusions
[6] = All Patients (N = 35), either nightmares or intrusions, listed as topiramate
[7] = All Patients (N = 35), listed as topiramate
[8] = All Patients (N = 35), partial + full response
[9] = All Patients (N = 35), partial + full response, listed as topiramate
[10] = Non-Hallucinatory PTSD, Bipolar Disorder (N = 8)
[11] = Non-Hallucinatory PTSD, Bipolar Disorder (N = 8), listed as topiramate
[12] = Non-Hallucinatory PTSD, Non-Bipolar Disorder (N = 20)
[13] = Non-Hallucinatory PTSD, Non-Bipolar Disorder (N = 20), listed as topiramate
[14] = Patients with Hallucinatory PTSD (N = 7)
[15] = Patients with Hallucinatory PTSD (N = 7), listed as topiramate
[16] = Patients with Non-Hallucinatory PTSD, Total (N + 28)
[17] = Patients with Non-Hallucinatory PTSD, Total (N + 28), listed as topiramate

## CC1(C)O[C@@H]2[C@@H](CO[C@@]3(COS(N)(=O)=O)OC(C)(C)O[C@@H]23)O1 [Topiramate, 2,3:4,5-bis-O-(1-methylethylidene)-β-D-fructopyranose sulfamate]
[1]; 75 mg/day or less
  Share of partial responders with response at a dosage of 75 mg/day or less: 95%
[1]; 100 mg/day or less
  Share of full responders with response at a dosage of 100 mg/day or less: 91%
[1]; 1 at 5 days, remaining 4 after 4 weeks
  Patients discontinued without response: Five
[1]; All Patients (N = 35)
  Dosage of topiramate, Full response, mean ± SD: 78.6 mg/day
  Dosage of topiramate, Full response, median: (50.0) mg/day
  Dosage of topiramate, Partial response (threshold dosage), mean ± SD: 41.7 mg/day
  Dosage of topiramate, Partial response, median: (25.0) mg/day
  Suppression of intrusions, Full (number of patients): 22
  Suppression of intrusions, Partial (number of patients): 8
  Suppression of nightmares, Full (number of patients): 14
  Suppression of nightmares, Partial (number of patients): 5
[1]; [3]
  Time to onset of response, Full, mean ± SD: 35.3 days
  Time to onset of response, Full, median: (8.0) days
[1]; [4]
  Time to onset of response, Full, mean ± SD: 35 ± 48.6 days
  Time to onset of response, Full, median: 8.0 days
[1]; [5]
  Time to onset of response, Partial, mean ± SD: 10.9 days
  Time to onset of response, Partial, median: (4.0) days
[1]; [6]
  Time to onset of response, Partial, mean ± SD: 11 ± 13.1 days
  Time to onset of response, Partial, median: 4.0 days
[1]; [7]
  Dosage of topiramate, Full response, mean ± SD: 79 ± 113.8 mg/day
  Dosage of topiramate, Full response, median: 50.0 mg/day
  Dosage of topiramate, Partial response (threshold dosage), mean ± SD: 42 ± 31.7 mg/day
  Dosage of topiramate, Partial response, median: 25.0 mg/day
[1]; [8]
  Suppression of intrusions (N = 35): 86%
  Suppression of nightmares (N = 24): 79%
[1]; [9]
  Suppression of intrusions (N = 35): 86%
  Suppression of nightmares (N = 24): 79%
[1]; [10]
  Dosage of topiramate, Full response, mean ± SD: 154.2 mg/day
  Dosage of topiramate, Full response, median: (37.5) mg/day
  Dosage of topiramate, Partial response (threshold dosage), mean ± SD: 58.3 ± 14.4 mg/day
  Dosage of topiramate, Partial response, median: (50.0) mg/day
  Suppression of intrusions (N = 35): 88% (7/8)
  Suppression of intrusions, Full (number of patients): 6
  Suppression of intrusions, Partial (number of patients): 1
  Suppression of nightmares (N = 24): 83% (5/6)
  Suppression of nightmares, Full (number of patients): 4
  Suppression of nightmares, Partial (number of patients): 1
  Time to onset of response, Full, mean ± SD: 43.3 ± 62.5 days
  Time to onset of response, Full, median: (6.0) days
  Time to onset of response, Partial, mean ± SD: 17.3 ± 13.5 days
  Time to onset of response, Partial, median: (17.0) days
[1]; [11]
  Dosage of topiramate, Full response, mean ± SD: 154 ± 200.9 mg/day
  Dosage of topiramate, Full response, median: 37.5 mg/day
  Dosage of topiramate, Partial response (threshold dosage), mean ± SD: 58 ± 14.4 mg/day
  Dosage of topiramate, Partial response, median: 50.0 mg/day
[1]; [12]
  Dosage of topiramate, Full response, mean ± SD: 48.3 mg/day
  Dosage of topiramate, Full response, median: (50.0) mg/day
  Dosage of topiramate, Partial response (threshold dosage), mean ± SD: 26.9 mg/day
  Dosage of topiramate, Partial response, median: (25.0) mg/day
  Suppression of intrusions (N = 35): 90%
  Suppression of intrusions, Full (number of patients): 16
  Suppression of intrusions, Partial (number of patients): 2
  Suppression of nightmares (N = 24): 85%
  Suppression of nightmares, Full (number of patients): 10
  Suppression of nightmares, Partial (number of patients): 1
  Time to onset of response, Full, mean ± SD: 32.1 days
  Time to onset of response, Full, median: (10.0) days
  Time to onset of response, Partial, mean ± SD: 8.6 days
  Time to onset of response, Partial, median: (3.5) days
[1]; [13]
  Dosage of topiramate, Full response, mean ± SD: 48 ± 25.4 mg/day
  Dosage of topiramate, Full response, median: 50.0 mg/day
  Dosage of topiramate, Partial response (threshold dosage), mean ± SD: 30 ± 11.2 mg/day
  Dosage of topiramate, Partial response, median: 25.0 mg/day
[1]; [14]
  Dosage of topiramate, Partial response (threshold dosage), mean ± SD: 70.0 ± 51.2 mg/day
  Dosage of topiramate, Partial response, median: (75.0) mg/day
  Suppression of intrusions (N = 35): 71% (5/7)
  Suppression of intrusions, Full (number of patients): 0
  Suppression of intrusions, Partial (number of patients): 5
  Suppression of nightmares (N = 24): 60% (3/5)
  Suppression of nightmares, Full (number of patients): 0
  Suppression of nightmares, Partial (number of patients): 3
  Time to onset of response, Partial, mean ± SD: 12.6 ± 15.7 days
  Time to onset of response, Partial, median: (7.0) days
[1]; [15]
  Dosage of topiramate, Partial response (threshold dosage), mean ± SD: 70.0 ± 51.2 mg/day
  Dosage of topiramate, Partial response, median: 75.0 mg/day
  Time to onset of response, Partial, mean ± SD: 13 ± 15.7 days
  Time to onset of response, Partial, median: 7.0 days
[1]; [16]
  Dosage of topiramate, Full response, mean ± SD: 78.6 mg/day
  Dosage of topiramate, Full response, median: (50.0) mg/day
  Dosage of topiramate, Partial response (threshold dosage), mean ± SD: 32.8 mg/day
  Dosage of topiramate, Partial response, median: (25.0) mg/day
  Suppression of intrusions (N = 35): 89%
  Suppression of intrusions, Full (number of patients): 22
  Suppression of intrusions, Partial (number of patients): 3
  Suppression of nightmares (N = 24): 84%
  Suppression of nightmares, Full (number of patients): 14
  Suppression of nightmares, Partial (number of patients): 2
  Time to onset of response, Full, mean ± SD: 35.3 days
  Time to onset of response, Full, median: (8.0) days
  Time to onset of response, Partial, mean ± SD: 10.3 days
  Time to onset of response, Partial, median: (4.0) days
[1]; [17]
  Time to onset of response, Partial, mean ± SD: 10 ± 12.7 days
  Time to onset of response, Partial, median: 4.0 days
[1]; all 35 patients
  Global full response rate (suppression of both nightmares and intrusions): 63%
  Global full response, number of patients: 22 patients
  Global partial response rate: 23%
  Global partial response, number of patients: 8 patients
[1]; all patients
  Response rate, full/partial: 86%
[1]; by the third week
  Additional patients reporting a full response by the third week of treatment: 3 patients
[1]; hallucinatory group
  Response rate, full: 0%
  Response rate, partial: 83%
[1]; non-hallucinatory subgroup
  Response rate, full: 79%
  Response rate, full/partial: 89%
[1]; within 1 week of treatment
  Patients reporting a full response within 1 week of treatment: 10 patients
[2]; adults and children
  Efficacy in treatment of seizure types: efficacy in the treatment of a broad range of seizure types
[2]; simple and complex partial seizures and secondarily generalized seizures
  Efficacy in clinical trials of human epilepsy: effective as adjunctive therapy or as monotherapy
Kindled epilepsy
  Seizure block in animal model of kindled epilepsy: effectively block seizures
